Assays:
[1] = tested on: gastrin deficient mice; test: Gastric fundic mucosa proliferation by BrdU incorporation; type: in vivo; details: infusion 10 nmol/kg/hr; G-17 effect at one day; versus saline or G-17 alone
Procedure: (§1) The mice were fasted 24 hours prior to sacrifice.
Immunohistochemical detection of BrdU incorporation was performed using the avidin-biotin monoclonal antibody technique as previously described (51). Ten well oriented oxyntic glands or colonic crypts were counted per slide. Of the ten colonic crypts, 4 were obtained from the rectum, 3 from the descending colon, and 3 from the ascending colon. The BrdU labeling index was calculated by counting the number of BrdU-positive cells per gland/crypt and expressing the result as a percentage of the total number of cells per gland/crypt.

[2] = tested on: gastrin deficient mice; test: Gastric acid secretion, pyloric ligation, after infusion in gastrin deficient mice; type: in vivo; details: 10 nmol/kg/hr, 4 hours pyloric ligation, saline 5.4±2.0 nEq
Procedure: Animals were operated and sacrificed under anesthesia with Metofane.
as §1
After food deprivation for 24 hours, the mice were anesthetized with avertin, the abdominal cavity was incised, and each stomach was rinsed with 1 ml saline through a canula placed in the pylorus. The pylorus was then ligated and the gastric juice was collected 4 hours later (61). The acidity of the gastric contents was measured by titration with 0.02 N NaOH and expressed as H^+ nEq.

[3] = tested on: H+/K+-ATPase; test: H+/K+-ATPase expression by immunohistochemical analysis; type: in vivo, mice; details: compared to infusion of saline alone
Procedure: as §1
(§2) At the time of sacrifice, the stomach was divided into thirds longitudinally. One section was fixed in Carnoy's fixative overnight, and then embedded in paraffin. Routine H&E staining was performed. Parietal cells were stained using an antibody to the β subunit of H+/K+-ATPase MA3-923 (Affinity Bioreagents, Golden, Colo.) at a final dilution of 1:100, as previously described (62). Ten well oriented fundic glands were examined for parietal cell number, with the result expressed as number of parietal cells per gland (51).

[4] = tested on: gastrin deficient mice; test: Parietal cell and ECL cell counts by immunohistochemistry; type: in vivo
Procedure: as §1, §2
Small tissue specimens (2×4 mm) were taken from the greater curvature of the oxyntic mucosa. They were fixed either in 4% 1-Ethyl-3(3-dimethylaminopropyl)-carbodiimide hydrochloride (Sigma, St. Louis, Mo.) for histamine staining, or in 4% paraformaldehyde for VMAT-2 staining, for 8-12 h at 4° C., then rinsed with 20% sucrose in 0.1 M phosphate-buffered saline (pH 7.4). Fresh frozen tissue sections were cut in a cryostat (Bright, Huntington, England) at 10 μm thickness. The sections were thawed onto gelatin-coated glass slides. After washing twice for 10 min with phosphate-buffered saline (pH 7.4), containing 0.25% Triton X-100 (PBS-T), the sections were incubated with either histamine antibody 8431 rabbit (Eurodiagnostic, Mahnö, Sweden) at a final dilution of 1:200 or VMAT-2 antibody B-GP 280-1 (Alpha Diagnostic Int., San Antonio, Tex.) at a dilution of 1:2000 overnight at 4° C. After washing twice with PBS-T (10 min each time), the sections were incubated for 1 h at room temperature with FITC-conjugated goat anti-rabbit IgG (Dako, Glostrup, Denmark) for histamine at a 1:40 dilution or donkey anti-guinea pig IgG (Jacksson InmunoResearch, Göteborg, Sweden) for VMAT-2 at a 1:100 dilution. […] The number of immunostained cells were counted and exressed as number per gland of mucosa.
Parietal and ECL cells were stained immunohistochemically as above. At least ten well oriented glands were then assessed for the number of positively stained cells per gland.

[5] = tested on: gastrin deficient mice; test: Electron microscopy of parietal cells (activation, vacuolar canaliculi, lipofuscin bodies); type: in vivo
Procedure: as §1
Small tissue specimens (<1 mm^3) were taken from the oxyntic gland area and immediately immersed in a mixture of […] 1% glutaraldehyde, 3% formaldehyde, 0.075M sodium phoshpate buffer, pH 7.2, for 6 hours. The specimens were post-fixed in 1% osmium tetroxide for 1 hour, dehydrated in graded acetone solutions and embedded in Epon 812. Ultrathin sections (60-80 nm) were cut on a LKB MK III Ultratome, contrasted with uranyl acetate and lead citrate and examined in a Philips CM10 (Philips,) transmission electron microscope (63). Parietal cells were identified by the presence of secretory canuliculi and/or tubulovesicles, and ECL cells were identified by the presence of characteristic granules and vesicles in the cytoplasm. Point counting methods were used to analyze the voulume density of the various organelles as previously described (64,65). The cells were photographed (nucleated profiles only) at 6,000× magnification; the prints were then enlarged to 20,000× for planimetric analysis. Activated parietal cells were defined as cells having secretory canuliculi in their cytoplasm. The percentage of activated parietal cells was determined by analyzing the electron micrographs of 100 parietal cells per group. Vacuolar canaliculi were defined as canuliculi containing lysosomal bodies and/or vacuoles in their lumen. Lipofuscin bodies were identified by their high electron density (osmiophilia) in the cytoplasm.

[6] = biological target: T1, CCK-B/gastrin receptor (Rattus norvegicus, UniProt P30553); details: reportedly; cited from earlier work
T1 sequence (P30553 1-452): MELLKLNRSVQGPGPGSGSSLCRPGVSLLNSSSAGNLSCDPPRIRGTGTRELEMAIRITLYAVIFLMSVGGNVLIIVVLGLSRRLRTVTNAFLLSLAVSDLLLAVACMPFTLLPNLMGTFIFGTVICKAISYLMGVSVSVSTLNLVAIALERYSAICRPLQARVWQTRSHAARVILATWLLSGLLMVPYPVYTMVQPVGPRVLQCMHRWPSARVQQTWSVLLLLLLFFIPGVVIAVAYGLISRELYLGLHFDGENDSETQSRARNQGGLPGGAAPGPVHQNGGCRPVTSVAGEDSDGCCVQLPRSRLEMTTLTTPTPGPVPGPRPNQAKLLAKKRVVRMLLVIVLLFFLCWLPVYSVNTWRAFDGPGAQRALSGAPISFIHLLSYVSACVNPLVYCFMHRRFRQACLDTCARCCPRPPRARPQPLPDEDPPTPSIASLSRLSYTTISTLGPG

Molecule | proliferation rate of the gastric fundic mucosa (BrdU incorporation) [1] | acid output ([2]; after 14 days of infusion) [nEq] | acid output ([2]; after one day of infusion) [nEq] | acid output ([2]; after six days of infusion) [nEq] | effect on H+/K+-ATPase expression (intensity of immunostaining) [3] | effect on ECL cell number (histamine or VMAT-2 staining) ([4]; any time point examined) | increase in the number of parietal cells compared to saline ([4]; by day 14 of infusion) [%] | effect on parietal cell number (in words) ([4]; versus saline, or combination versus G-17 alone) | lipofuscin bodies, percentage of cell volume ([5]; 14 day infusion, saline 0.26±0.10%) [%] | vacuolar canaliculi, percentage of cell volume ([5]; 14 day infusion, saline 0.38±0.38%) [%] | activated parietal cells ([5]; after 14 days of infusion, saline 27%) [%] | potency relative to YF476 [6]
gastrin-17 [G-17] | significantly increased proliferation rate | 12.0±2.2 | 21.8±8.8 | 37.4±9.4 | no effect on H+/K+-ATPase expression | neither G-17, G17-Gly, or the combination influenced ECL cell number | 65 | significant increase in parietal cell number | 1.88±0.27 | 7.50±2.40 | 27 | –
Cc1cccc(NC(=O)N[C@@H]2N=C(c3ccccc3)c3ccccc3N(CC(=O)c3ccccc3C)C2=O)c1 [YM022] | – | – | – | – | – | – | – | – | – | – | – | about 5 times

Source: patent US20030049698A1, “Diagnosis and treatment of gastrointestinal disease” (priority 2002, published 2003)
